Results from ChEMBL document CHEMBL1201862, “PubChem BioAssay data set” (2004).
Calls of active or inactive are those of the source. Unless noted, the rule behind the calls is not given here.

Experiments:
[1] = target: G-protein coupled receptor 55 (Homo sapiens, UniProt Q9Y2T6); assay: GPR55 agonists via beta-arrestin recruitment, primary screen, imaging, U2OS cells, beta-arrestin-GFP redistribution (AID 1961); format: functional
[2] = target: T1, High affinity choline transporter 1 (Homo sapiens, UniProt Q9GZV3); assay: CHT activators, dose response, cell-based, 10-point CRC, membrane potential dye (AID 602376); format: functional
T1 sequence (Q9GZV3 whole entry): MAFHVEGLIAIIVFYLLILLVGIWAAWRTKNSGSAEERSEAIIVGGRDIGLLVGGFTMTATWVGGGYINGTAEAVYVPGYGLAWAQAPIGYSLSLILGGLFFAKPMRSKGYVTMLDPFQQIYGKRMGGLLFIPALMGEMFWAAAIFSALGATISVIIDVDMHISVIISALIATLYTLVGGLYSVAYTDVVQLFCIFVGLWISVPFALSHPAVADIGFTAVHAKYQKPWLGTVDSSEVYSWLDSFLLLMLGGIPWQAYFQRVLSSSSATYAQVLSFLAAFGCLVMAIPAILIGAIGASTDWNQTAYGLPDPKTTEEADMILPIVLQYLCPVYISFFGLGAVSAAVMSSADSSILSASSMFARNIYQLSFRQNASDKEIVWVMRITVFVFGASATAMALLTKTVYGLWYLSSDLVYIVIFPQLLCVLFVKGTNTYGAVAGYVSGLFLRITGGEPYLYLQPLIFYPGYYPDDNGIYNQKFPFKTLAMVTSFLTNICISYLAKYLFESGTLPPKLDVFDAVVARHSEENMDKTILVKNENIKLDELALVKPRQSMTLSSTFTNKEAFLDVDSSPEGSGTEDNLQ

Insulin-degrading enzyme [3] = target: T2, Insulin-degrading enzyme (Homo sapiens, UniProt P14735); assay: activators of recombinant IDE enzyme, dose response, counter-screen for IDE activator project, biochemical, fluorescence polarization (AID 588681)
T2 sequence (P14735 whole entry): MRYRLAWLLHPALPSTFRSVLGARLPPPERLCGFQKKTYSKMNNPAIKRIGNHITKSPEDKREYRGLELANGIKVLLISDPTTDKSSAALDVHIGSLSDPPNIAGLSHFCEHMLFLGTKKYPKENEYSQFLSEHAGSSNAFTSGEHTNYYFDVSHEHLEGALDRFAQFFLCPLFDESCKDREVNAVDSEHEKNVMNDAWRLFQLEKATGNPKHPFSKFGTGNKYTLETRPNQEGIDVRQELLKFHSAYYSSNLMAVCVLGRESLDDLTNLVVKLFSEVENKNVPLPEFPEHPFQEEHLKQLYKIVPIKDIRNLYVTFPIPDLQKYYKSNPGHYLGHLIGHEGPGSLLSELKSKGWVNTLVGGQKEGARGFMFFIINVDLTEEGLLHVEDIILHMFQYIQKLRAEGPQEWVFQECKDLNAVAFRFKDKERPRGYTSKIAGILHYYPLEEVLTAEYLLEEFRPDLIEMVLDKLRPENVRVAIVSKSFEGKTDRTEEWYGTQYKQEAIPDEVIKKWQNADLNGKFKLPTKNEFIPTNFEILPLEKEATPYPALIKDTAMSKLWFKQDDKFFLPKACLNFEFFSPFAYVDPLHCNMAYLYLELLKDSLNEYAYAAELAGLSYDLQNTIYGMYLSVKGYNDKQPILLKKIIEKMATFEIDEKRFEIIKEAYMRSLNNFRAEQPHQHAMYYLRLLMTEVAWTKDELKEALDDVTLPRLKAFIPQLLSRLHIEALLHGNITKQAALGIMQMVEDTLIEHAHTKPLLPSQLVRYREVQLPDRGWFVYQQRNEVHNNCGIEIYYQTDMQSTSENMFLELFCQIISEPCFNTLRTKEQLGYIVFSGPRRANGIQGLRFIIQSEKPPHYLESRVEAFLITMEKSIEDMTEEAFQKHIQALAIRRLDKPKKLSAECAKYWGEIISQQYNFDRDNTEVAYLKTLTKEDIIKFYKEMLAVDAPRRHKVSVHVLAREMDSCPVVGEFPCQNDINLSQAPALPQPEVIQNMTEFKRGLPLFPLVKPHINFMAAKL

Insulin-degrading enzyme [4] = target: T2, Insulin-degrading enzyme; assay: activators of endogenous IDE in HEK cells, dose response, cell-based, fluorescence polarization (AID 588439); format: functional
HEK293 [5] = assay: HEK cell cytotoxicity by LDH release, dose response, cytotoxicity control for IDE activator project, fluorescence, HEK cells (AID 588440); format: functional, cell-based; conditions: Homo sapiens;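 also: cytotoxicity by LDH release measuring loss of membrane integrity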
HEK293 [6] = assay: optical interference in Abeta FP readout, dose response, artefact control for IDE activator project, biochemical, fluorescence polarization (AID 588442); format: functional, cell-based; conditions: Homo sapiens
[7] = Vero cell cytotoxicity, cytotoxicity control for M. tuberculosis inhibitor project, purified and synthesized samples, set 8 (AID 602431); format: functional; conditions: Mycobacterium tuberculosis
[8] = HepG2 cell cytotoxicity, cytotoxicity control, set 6 (AID 602432); format: functional; conditions: Mycobacterium tuberculosis
[9] = THP-1 cell cytotoxicity, cytotoxicity control, set 6 (AID 602433); format: functional; conditions: Mycobacterium tuberculosis
[10] = target: Multidrug resistance protein CDR1 (Candida albicans, UniProt P43071); assay: CaCDR1 efflux pump inhibitors in yeast, dose response, S. cerevisiae AD1-8u, singleplex, Cherry Pick1 hits (AID 588606); format: functional
Multidrug resistance protein CDR1, sequence (P43071 whole entry, looked up): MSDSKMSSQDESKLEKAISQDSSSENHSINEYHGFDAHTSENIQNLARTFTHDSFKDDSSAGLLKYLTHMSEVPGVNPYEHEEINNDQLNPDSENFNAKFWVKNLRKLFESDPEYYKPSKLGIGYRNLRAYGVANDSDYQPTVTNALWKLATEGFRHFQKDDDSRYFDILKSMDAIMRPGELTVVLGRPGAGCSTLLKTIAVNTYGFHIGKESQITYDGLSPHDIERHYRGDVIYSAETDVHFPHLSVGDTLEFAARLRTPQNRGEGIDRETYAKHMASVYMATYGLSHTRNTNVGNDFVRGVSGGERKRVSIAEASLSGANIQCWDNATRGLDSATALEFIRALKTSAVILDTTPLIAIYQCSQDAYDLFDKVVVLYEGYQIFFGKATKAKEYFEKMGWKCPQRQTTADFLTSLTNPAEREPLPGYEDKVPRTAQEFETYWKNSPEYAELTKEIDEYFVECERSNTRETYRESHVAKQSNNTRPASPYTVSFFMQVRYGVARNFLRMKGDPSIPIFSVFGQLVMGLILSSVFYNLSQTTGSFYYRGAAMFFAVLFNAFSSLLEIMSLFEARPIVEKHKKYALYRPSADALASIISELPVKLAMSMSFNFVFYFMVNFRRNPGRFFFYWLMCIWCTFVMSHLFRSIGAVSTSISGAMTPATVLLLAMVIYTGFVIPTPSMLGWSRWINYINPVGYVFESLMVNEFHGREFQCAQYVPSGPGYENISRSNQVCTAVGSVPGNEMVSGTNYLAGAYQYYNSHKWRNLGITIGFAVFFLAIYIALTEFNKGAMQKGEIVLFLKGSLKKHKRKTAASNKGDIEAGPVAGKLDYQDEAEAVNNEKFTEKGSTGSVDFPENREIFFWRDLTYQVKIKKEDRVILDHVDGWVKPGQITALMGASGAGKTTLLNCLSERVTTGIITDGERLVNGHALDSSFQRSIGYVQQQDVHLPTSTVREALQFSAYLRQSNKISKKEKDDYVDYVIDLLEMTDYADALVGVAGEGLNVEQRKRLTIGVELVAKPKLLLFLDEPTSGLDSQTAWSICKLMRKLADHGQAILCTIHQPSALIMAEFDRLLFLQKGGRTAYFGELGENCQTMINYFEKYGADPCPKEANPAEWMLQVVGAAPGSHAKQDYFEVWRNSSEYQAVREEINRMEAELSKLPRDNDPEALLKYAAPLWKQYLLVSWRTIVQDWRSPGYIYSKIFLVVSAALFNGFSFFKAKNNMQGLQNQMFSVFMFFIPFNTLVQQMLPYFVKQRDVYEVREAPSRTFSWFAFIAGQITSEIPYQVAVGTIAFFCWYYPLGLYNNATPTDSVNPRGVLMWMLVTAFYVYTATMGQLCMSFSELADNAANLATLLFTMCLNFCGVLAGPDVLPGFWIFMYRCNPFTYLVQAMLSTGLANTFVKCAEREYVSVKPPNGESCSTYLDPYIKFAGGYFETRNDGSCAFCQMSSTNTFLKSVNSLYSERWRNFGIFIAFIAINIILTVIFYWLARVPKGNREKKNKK

X-box-binding protein 1 = X-box-binding protein 1 (Homo sapiens, UniProt P17861); format: functional, Cricetulus griseus;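 also: confirmatory dose-response counter-screen serving a CHOP assay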
[11] = target: Glycogen synthase kinase-3 alpha (Homo sapiens, UniProt P49840); assay: Inhibition of Human GSK-3 alpha Activity Measured in Biochemical System Using Microfluidics - 2063-06_Inhibitor_Dose_DryPowder_Activity_Set2. [Related pubchem assays (depositor defined):AID2709]
Glycogen synthase kinase-3 alpha, sequence (P49840 whole entry): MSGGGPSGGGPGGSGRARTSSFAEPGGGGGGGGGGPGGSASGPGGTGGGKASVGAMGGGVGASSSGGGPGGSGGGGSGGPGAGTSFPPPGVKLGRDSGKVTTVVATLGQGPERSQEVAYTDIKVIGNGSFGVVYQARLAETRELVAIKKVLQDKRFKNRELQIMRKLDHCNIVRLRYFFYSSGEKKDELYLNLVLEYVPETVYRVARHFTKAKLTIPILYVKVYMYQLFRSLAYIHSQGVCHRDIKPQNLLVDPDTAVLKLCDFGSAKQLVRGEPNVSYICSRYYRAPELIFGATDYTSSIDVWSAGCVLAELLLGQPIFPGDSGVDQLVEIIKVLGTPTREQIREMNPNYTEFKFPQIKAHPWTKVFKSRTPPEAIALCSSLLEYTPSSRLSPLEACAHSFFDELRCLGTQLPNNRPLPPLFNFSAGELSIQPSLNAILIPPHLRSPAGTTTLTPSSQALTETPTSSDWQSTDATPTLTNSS

[12] = target: Glycogen synthase kinase-3 beta (Homo sapiens, UniProt P49841); assay: Inhibition of Human GSK-3 beta Activity Measured in Biochemical System Using Microfluidics - 2063-05_Inhibitor_Dose_DryPowder_Activity_Set2. [Related pubchem assays (depositor defined):AID2709]
[13] = target: Cyclin-dependent kinase 5/CDK5 activator 1 (Homo sapiens, UniProt Q00535); assay: CDK5-p25 kinase inhibitors, specificity check, dose response, selectivity assay for GSK-3 alpha inhibitor project, biochemical, microfluidic mobility shift, dry powder (AID 588430)
Cyclin-dependent kinase 5/CDK5 activator 1, sequence (Q00535 whole entry): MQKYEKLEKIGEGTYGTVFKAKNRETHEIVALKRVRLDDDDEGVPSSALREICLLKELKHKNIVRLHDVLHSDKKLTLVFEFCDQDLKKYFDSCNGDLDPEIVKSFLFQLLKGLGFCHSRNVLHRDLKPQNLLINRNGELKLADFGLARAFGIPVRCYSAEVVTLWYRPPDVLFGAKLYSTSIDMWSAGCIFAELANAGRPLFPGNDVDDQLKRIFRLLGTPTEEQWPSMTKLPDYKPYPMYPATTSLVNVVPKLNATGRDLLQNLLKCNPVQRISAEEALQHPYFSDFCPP
Cyclin-dependent kinase 5/CDK5 activator 1, sequence (Q15078 whole entry, further chain): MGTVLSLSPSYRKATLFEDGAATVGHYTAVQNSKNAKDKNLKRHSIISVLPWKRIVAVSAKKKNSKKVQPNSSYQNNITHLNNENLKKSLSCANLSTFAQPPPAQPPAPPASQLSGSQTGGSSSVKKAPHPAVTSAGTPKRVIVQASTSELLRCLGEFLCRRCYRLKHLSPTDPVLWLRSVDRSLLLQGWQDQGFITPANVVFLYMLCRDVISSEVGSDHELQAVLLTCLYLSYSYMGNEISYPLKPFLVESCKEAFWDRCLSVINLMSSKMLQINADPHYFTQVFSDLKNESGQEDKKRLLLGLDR

[14] = target: ALK tyrosine kinase receptor (Homo sapiens, UniProt Q9UM73); format: functional;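 also: ALK tested as one member of a kinase panel screen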
ALK tyrosine kinase receptor, sequence (Q9UM73 whole entry): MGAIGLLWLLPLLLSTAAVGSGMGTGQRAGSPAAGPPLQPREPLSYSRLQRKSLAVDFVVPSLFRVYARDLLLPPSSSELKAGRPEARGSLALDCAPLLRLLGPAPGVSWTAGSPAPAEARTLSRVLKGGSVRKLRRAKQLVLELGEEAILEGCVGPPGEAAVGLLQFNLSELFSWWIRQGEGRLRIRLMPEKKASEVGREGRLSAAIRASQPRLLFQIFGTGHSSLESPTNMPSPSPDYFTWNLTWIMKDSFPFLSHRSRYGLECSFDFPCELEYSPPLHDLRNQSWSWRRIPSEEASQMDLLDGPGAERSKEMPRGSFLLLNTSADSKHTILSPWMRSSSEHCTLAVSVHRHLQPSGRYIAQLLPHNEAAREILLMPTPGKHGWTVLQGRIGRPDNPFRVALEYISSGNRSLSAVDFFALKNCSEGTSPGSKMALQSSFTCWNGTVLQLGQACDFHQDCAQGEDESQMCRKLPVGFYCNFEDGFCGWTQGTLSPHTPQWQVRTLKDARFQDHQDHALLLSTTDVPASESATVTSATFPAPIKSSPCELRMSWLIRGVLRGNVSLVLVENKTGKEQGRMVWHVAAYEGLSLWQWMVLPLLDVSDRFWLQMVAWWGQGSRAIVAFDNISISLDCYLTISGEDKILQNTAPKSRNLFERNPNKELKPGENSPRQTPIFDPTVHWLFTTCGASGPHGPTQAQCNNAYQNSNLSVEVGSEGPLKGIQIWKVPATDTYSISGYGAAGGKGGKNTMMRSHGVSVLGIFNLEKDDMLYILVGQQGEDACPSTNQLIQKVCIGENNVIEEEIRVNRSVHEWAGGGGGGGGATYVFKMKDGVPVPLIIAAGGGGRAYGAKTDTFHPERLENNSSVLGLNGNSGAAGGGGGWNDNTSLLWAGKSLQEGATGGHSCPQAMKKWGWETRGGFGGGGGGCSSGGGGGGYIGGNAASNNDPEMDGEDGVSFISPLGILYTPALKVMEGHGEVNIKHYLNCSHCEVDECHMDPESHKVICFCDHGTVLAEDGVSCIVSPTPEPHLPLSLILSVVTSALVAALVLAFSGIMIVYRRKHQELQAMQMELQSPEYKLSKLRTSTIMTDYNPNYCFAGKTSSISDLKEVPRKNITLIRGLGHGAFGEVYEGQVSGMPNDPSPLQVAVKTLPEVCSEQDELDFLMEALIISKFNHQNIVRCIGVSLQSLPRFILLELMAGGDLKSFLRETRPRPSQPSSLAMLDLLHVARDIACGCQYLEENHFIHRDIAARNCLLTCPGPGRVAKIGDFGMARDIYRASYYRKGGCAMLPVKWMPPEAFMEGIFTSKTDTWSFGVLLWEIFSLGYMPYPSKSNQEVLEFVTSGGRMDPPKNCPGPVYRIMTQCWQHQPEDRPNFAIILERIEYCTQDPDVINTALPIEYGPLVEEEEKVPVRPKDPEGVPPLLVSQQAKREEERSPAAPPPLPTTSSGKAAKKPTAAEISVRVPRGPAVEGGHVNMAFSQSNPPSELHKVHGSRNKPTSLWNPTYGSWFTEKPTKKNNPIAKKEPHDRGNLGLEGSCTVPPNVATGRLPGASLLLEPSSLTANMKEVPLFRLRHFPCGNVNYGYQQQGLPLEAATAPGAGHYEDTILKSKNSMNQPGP

[15] = target: Cyclin-dependent kinase 19 (Homo sapiens, UniProt Q9BWU1); assay: Navigating the Kinome. Panel member name: CDC2L6; format: functional
CAAX prenyl protease 2 [16] = target: T3, CAAX prenyl protease 2 (Saccharomyces cerevisiae S288c, UniProt Q03530); format: biochemical
T3 sequence (Q03530 whole entry): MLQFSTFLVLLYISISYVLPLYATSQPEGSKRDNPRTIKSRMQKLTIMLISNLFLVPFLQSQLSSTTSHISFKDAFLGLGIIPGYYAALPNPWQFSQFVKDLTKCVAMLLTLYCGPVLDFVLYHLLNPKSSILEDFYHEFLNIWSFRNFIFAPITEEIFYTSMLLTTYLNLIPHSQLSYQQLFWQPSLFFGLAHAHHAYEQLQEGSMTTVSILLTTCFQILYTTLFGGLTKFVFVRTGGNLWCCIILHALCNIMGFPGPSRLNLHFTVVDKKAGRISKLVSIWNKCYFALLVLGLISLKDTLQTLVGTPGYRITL

CAAX prenyl protease 2 [17] = target: T3, CAAX prenyl protease 2; assay: yeast Rce1 CaaX protease inhibitors, dose response, biochemical, plate reader, dry powder retest (AID 588851)
[18] = target: T4, Corticotropin-releasing factor receptor 2/Corticotropin-releasing factor-binding protein (Homo sapiens, UniProt P24387+Q13324); assay: Dose Response confirmation of uHTS hits for small molecule antagonists of the CRF-binding protein and CRF-R2 receptor complex.; format: functional; conditions: read-out: IC50_Mean
T4 sequence (Q13324 whole entry): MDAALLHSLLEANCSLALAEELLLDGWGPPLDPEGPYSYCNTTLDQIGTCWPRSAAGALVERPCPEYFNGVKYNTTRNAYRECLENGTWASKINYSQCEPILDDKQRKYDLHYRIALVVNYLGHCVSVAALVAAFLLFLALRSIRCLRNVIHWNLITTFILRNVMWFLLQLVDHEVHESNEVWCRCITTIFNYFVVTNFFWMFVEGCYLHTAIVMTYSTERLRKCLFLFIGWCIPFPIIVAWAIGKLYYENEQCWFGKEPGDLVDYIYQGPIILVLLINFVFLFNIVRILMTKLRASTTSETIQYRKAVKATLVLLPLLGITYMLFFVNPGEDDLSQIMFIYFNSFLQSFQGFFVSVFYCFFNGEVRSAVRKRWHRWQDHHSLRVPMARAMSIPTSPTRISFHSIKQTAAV
T4 sequence (P24387 whole entry): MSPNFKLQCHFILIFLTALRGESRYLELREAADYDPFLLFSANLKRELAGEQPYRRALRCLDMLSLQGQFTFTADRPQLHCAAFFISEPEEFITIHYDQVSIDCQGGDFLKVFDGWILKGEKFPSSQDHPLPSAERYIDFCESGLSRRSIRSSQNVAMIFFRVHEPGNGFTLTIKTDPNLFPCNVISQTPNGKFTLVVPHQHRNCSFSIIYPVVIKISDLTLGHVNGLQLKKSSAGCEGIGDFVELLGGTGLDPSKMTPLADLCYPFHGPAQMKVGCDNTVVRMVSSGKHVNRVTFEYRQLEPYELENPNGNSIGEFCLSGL

[19] = target: T4, Corticotropin-releasing factor receptor 2/Corticotropin-releasing factor-binding protein; assay: activators of CRF receptor 2 with binding protein – uHTS hits, confirmation (AID 602473); format: functional; conditions: read-out: EC50_Mean
[20] = CRF-BP/CRF-R2 complex antagonists, dose response, cell-based, uHTS hits, 384-well (AID 651639); format: functional, Homo sapiens; conditions: read-out: IC50_Mean
[21] = target: Protein disulfide-isomerase (Homo sapiens, UniProt P07237); assay: PDI inhibitors, insulin aggregation turbidity, dose response, biochemical, absorbance, cherry-picked samples (AID 602350); format: functional
Protein disulfide-isomerase, sequence (P07237 whole entry): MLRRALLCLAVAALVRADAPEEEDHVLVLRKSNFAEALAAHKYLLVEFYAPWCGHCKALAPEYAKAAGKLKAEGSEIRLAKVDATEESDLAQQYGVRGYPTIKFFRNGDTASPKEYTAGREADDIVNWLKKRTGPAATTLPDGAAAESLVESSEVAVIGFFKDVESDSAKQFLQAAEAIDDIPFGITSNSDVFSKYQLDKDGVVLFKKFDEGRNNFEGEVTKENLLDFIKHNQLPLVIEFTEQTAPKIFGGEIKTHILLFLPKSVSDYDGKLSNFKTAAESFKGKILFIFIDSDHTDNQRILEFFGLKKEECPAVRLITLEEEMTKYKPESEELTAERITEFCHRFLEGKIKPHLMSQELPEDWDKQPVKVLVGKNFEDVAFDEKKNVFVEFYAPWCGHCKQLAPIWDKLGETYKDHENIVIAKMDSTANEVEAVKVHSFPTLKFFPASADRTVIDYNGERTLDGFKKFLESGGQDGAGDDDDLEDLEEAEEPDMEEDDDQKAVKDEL

Erythrocyte = assay: FACS-based assay to assess parasite growth inhibition 96 hr Measured in Cell-Based System Using Flow Cytometry - 2126-05_Inhibitor_Dose_DryPowder_Activity. [Related pubchem assays (depositor defined):AID488774]; format: functional; conditions: Homo sapiens
[22] = FACS-based assay to assess parasite growth inhibition 48 hr Measured in Cell-Based System Using Flow Cytometry - 2126-03_Inhibitor_Dose_DryPowder_Activity. [Related pubchem assays (depositor defined):AID488774]; format: functional; conditions: Homo sapiens
[23] = A cell-based HTS for delayed death inhibitors of the malarial parasite plastid Measured in Microorganism System Using Plate Reader - 2126-02_Inhibitor_Dose_DryPowder_Activity.; format: functional, organism-based
[24] = A cell-based HTS for delayed death inhibitors of the malarial parasite plastid Measured in Microorganism System Using Plate Reader - 2126-01_Inhibitor_Dose_DryPowder_Activity.; format: functional, organism-based
[25] = Vero cell cytotoxicity, dose response, cytotoxicity control for M. tuberculosis growth inhibitor project, Vero cells, purified and synthesized compounds, set 4 (AID 504854); format: functional; conditions: Mycobacterium tuberculosis
[26] = NIH-3T3 fibroblast cytotoxicity, dose response, cytotoxicity control, cell-based, fluorescence, Alamar Blue, secondary assay (AID 2327); format: functional;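 also: NIH-3T3 mouse fibroblasts cultured with fluconazole at 8 µg/mL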
[27] = C. albicans growth with fluconazole, confirmation, fluorescence, retest (AID 2467); format: functional, cell-based
Candida albicans [28] = assay: growth inhibition of resistant C. albicans, dose response, CaCi-8, fluconazole, Alamar Blue, dry powder (AID 488807); format: functional, organism-based
Candida albicans [29] = assay: single-agent growth inhibition of C. albicans, dose response, counter-screen for antifungal drug resistance project, C. albicans CaCi-2, dry powder (AID 488802); format: functional, organism-based

G-protein coupled receptor 55, sequence (Q9Y2T6 whole entry): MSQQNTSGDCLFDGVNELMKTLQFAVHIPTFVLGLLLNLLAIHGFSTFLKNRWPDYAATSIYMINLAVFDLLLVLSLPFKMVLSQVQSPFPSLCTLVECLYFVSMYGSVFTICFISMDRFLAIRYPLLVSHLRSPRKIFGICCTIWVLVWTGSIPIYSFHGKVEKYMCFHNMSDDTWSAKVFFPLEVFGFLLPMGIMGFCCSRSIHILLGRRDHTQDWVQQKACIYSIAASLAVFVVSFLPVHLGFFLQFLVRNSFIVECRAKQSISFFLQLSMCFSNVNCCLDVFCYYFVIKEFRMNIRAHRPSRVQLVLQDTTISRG

Structure (SMILES): CSc1ccc(-c2sc(Nc3ccccc3)n[n+]2-c2ccccc2)cc1
- EC50 [1]: > 32 µM (inactive)
- EC50 [2]: 7.33 µM (active)

Structure (SMILES): Cc1ccc2c(c1)c1c(n2CC(O)CNC2CCCC2)CCCC1 (stereo unspecified)
- EC50 (Insulin-degrading enzyme [3]): > 54.7 µM (inactive)
- EC50 (Insulin-degrading enzyme [4]): > 54.7 µM (inactive)
- IC50 (HEK293 [5]): 61.9 µM (inactive)
- EC50 (HEK293 [6]): > 55.9 µM (inactive)

Structure (SMILES): COc1ccc(N2CCN(C(=O)c3ccc(CNc4c(N5CCCC(C)C5)c(=O)c4=O)cc3)CC2)cc1 (stereo unspecified)
- CC50 [7]: > 100 µM (inconclusive)
- CC50 [8]: > 50 µM (inconclusive)
- CC50 [9]: > 98.4 µM (active)

Structure (SMILES): CC(C)=C1C2CCC1C1C(=O)N(c3nc(-c4ccc(C(C)C)cc4)c(C)s3)C(=O)C21 (stereo unspecified)
- EC50 [10]: 3.79 µM (active)

Structure (SMILES): O=C(Nc1cccc(Cl)c1)Nc1ccnc(-c2cccnc2)n1
- Absolute IC50 (XBP1) (X-box-binding protein 1): 10 µM
- AC50 [11]: 3.97 µM (active)
- AC50 [12]: 0.716 µM (active)
- AC50 [13]: 20.8 µM (active)

Structure (SMILES): O=C(O)c1c(Cl)ccc2cc(-n3cccc3)cnc12
- Ki [14]: 3.98 µM (active)
- Ki [15]: > 100 µM (inactive)

Structure (SMILES): CCOc1ccc(-n2c(SCc3ccc([N+](=O)[O-])cc3)nnc2-c2ccc(OC)cc2)cc1
- AC50 (CAAX prenyl protease 2 [16]): 0.102 µM (active)
- AC50 (CAAX prenyl protease 2 [17]): 1.12 µM (active)
- IC50 [18]: 1.68 µM (active)
- EC50 [19]: > 53 µM (inactive)
- IC50 [20]: > 20 µM (inactive)

Structure (SMILES): CCN(CC)CCNC(=O)C(C(=O)c1ccccc1)n1ccccc1=O (stereo unspecified)
- AC50 [21]: 2.16 µM (active)

Structure (SMILES): COc1ccc(COC[C@H](C)N2C[C@@H](C)[C@H](CN(C)S(=O)(=O)c3ccc(F)cc3)OCCCC[C@H](C)Oc3ccc(NC(=O)Nc4ccccc4)cc3C2=O)cc1
- AC50 (Erythrocyte): 0.001 µM (active)
- AC50 [22]: 0.0008 µM (active)
- AC50 [23]: 0.00018 µM (active)
- AC50 [24]: 0.000294 µM (active)

Structure (SMILES): CC(C)CCNC(=O)CSc1nc2c(c(=O)[nH]1)CCC2
- CC50 [25]: > 100 µM (active)

Structure (SMILES): CC1CCN(C(=O)Cn2c3ccccc3c3nc4n(c(=O)c32)CCS4)CC1
- EC50 [26]: > 160 µM (inconclusive)
- EC50 [27]: 0.979 µM (active)
- AC50 (Candida albicans [28]): 1.97 µM (active)
- AC50 (Candida albicans [29]): 108 µM (active)
